# Source: patent EP0562849A2, “Steroid derivatives” (priority 1992, dated 1993)
# Several values for one entry are separate records, joined by “and”; a condition that tells them apart may be missing. Identical values can stand only once. Like-named read-outs stand apart in the source and are kept apart here.
# Experiments:
# [1] = system: human LDL receptor promoter; assay: in vitro Luciferase Activity Test (LDL receptor promoter-luciferase reporter in recombinant CHO cells); assay type: cell-based; design: MED: unit not given here; conditions: for Emax: Homo sapiens, CHO, read-out: MA%; for Emax / MA%: maximum activity (%) over control; for MED: minimum effective dose (molar concentration, unit not given), 24 hr, assay medium with 0.5 µg/ml 25-hydroxycholesterol; for RED: relative effective dose compared to compound of Example 4, below one = more active
# Description: A 1546 base pair sequence of the human LDL receptor promoter was amplified using the polymerase chain reaction. A reaction mixture containing 20 pMoles each of the synthetic oligonucleotides 5'-[…]-3' (Seq. I.D. No: 1) and 5'-AAG-[…]-3', (Seq. I.D. No:2) 1 µg human genomic DNA purified from the adenocarcinoma cell line P3UCLA, 200 µM each of dATP, dGTP, dCTP, and TTP, 2.5 units of Taq DNA polymerase, 10mM Tris-HCI pH 8.3, 50 mM KCI, […], 0.1% gelatin in a final volume of 100 µl was subjected to 30 cycles of 15 sec at 96°C, 30 sec at 55°C, and 1 min at 72°C. The material was subject to gel electrophoresis on a 1% agarose gel and the 1546 base pair band was isolated and restriction enzyme digested with Hind III and Nde I. This fragment was ligated into the plasmid pSP72 (ProMega Biotech), which had previously been restriction enzyme nuclease digested with Hind III and Nde I. The resulting vector, pNLDLRP, was restriction endonulease digested with Ndel and Hind III and the material was again run on a 1% agarose gel to reisolate the 1546 bp LDL receptor sequence.
# Plasmid vector PSv2 was constructed by digesting plasmid pSv2-globin with Hind III and Bgl II then ligating an Nrul-Xhol linker into the vector. Plasmid pSv2 globin is disclosed in U.S. Patent No. 4,775,624, the entire teaching of which is herein incorporated by reference. The linker contained the following sequences: [formula] (Seq. I.D. No: 3), and [formula] ' (Seq. I.D. No:4).
# The resulting vector was designated pSv2-H NXB because it contained a […], an Nrul site, an Xhol site and a Bgl site. The Hind III-Bgl II fragment of plasmid pAlc4(NRRL B-18783), which contains the firefly luciferase gene, was then ligated into the Hin III-Bgl site of plasmid pSv2-HNXB. A neomycin resistance-conforming gene was then ligated into the Bam HI site of the resultant plasmid to form plasmid pSv2.
# A 1546 base pair fragment was isolated and cloned into a Ndel and Hind III (partial) restriction digested vector pSv2 containing the firefly luciferase reporter gene and a gene for neomycin resistance. The resulting vector, pLDL-Luc1 Neo-10, contains the human LDL receptor promoter driving expression of the firefly luciferase gene, a gene coding for neomycin resistance, ampicillin resistant marker and an origin of replication.
# Plasmid pLDL-Luc 1 Neo-10 was used to stably transfect Chinese Hamster Ovary cells using a Lipofection Reagent kit and procedure from Gibco BRL Research Products Division Life Technologies Inc. Transformants were selected by picking individual colonies grown in Dulbecco's modified Eagle's medium supplimented with 10% fetal bovine serum and containing 500 µg per ml […]. […] Clone S27/B30 was used for subsequent screening.
# In developing a cell based screen it is important to have a negative control. The viral SV40 promoter is ideal for this purpose in that it has a number of SP1 elements that enhance gene transcription. These elements are not under the control of end product repression; but they do have a high degree of sequence homology with the 16 base pair long sterol response element found in the LDL receptor promoter. The SV40 promoter should therefore be a sensitive mechanism to screen out agents that induce nonspecific transcription.
# Chinese Hamster Ovary cells were stably cotransfected with a vector pSV2AL-A 5' containing the SV40 promoter driving expression of the firefly luciferase gene and a second vector pSV2 NeoBam containing a neomycin resistant marker. Transfections were carried out using the Lipofectin Reagent kit and procedure from Gibco BRL Research Products Division Life Technologies Inc. Transformants were selected by picking individual colonies grown in Dulbecco's modified Eagle's medium supplemented with 10% fetal bovine serum and containing 500 µg per ml of geneticin. Individual clones were selected, lysed and assayed for luciferase production. […]
# Syrian Golden hamsters = assay: In vivo serum cholesterol lowering in hamsters fed a cholesterol test diet; conditions: hamsters; for inhibition in vivo at 100 mg/kg/day: Mesocricetus auratus, feed or water, 168 h, read-out: Percent Lowering of Cholesterol from Control Value Mean; for Serum Cholesterol Mean: 0.2% (w/w) in Cholesterol Test Diet for one week, equivalent to 100 mg/kg/day, groups of six, control mean 337
# Description: Syrian Golden hamsters were fed a cholesterol test diet made of 10% coconut oil and 0.12% cholesterol (by weight) in Purina 5001 Rodent Chow to induce hypercholesteriolemia.
# After two weeks on the cholesterol test diet the hamsters were bled from the orbital sinium under light CO2 anesthesia. Serum was prepared and analyzed for cholesterol using a commercial test kit (Cholesterol High Performance, Single Vial™, product of Boehringer Mannheim Corp., Indianapolis, IN, USA). The hamsters were separated into groups of six animals, such that each group had approximately the same mean serum cholesterol levels. Selected compounds of the invention were incorporated into the Cholesterol Test Diet at 0.2% (w/w) and fed to the hamsters for one week. A control group of hamsters continued on the Cholesterol Test Diet during the same one-week period. The dose of test compounds of the invention was equivalent to 100 mg/kg/day based on the weight of the hamsters and their diet consumption. Upon completion of the test period, the animals were bled and serum cholesterol determined as above.
# Mean serum cholesterol values from the test hamsters were compared to values from the control group and tested for significance at the Z.05 level using Dunnett's test.
# [2] = 15% luciferase activity cutoff point (footnote 2)
# [3] = NA is not active, 30% luciferase activity cutoff point (footnote 1)
# [4] = tests using 15% luciferase activity cutoff point (footnote 2)
# [5] = tests using 30% luciferase activity cutoff point (footnote 1)
# [6] = 0.2% (w/w) in diet for one week (100 mg/kg/day), negative values = serum cholesterol increased relative to control
# [7] = 30% luciferase activity cutoff point (footnote 1)
SMILES,"Emax [1, 2] [%]","MA% [1, 3]","MED [1, 4]","MED [1, 5]","RED [1, 2]",inhibition in vivo at 100 mg/kg/day (Syrian Golden hamsters; [6]) [%],Serum Cholesterol Mean (Syrian Golden hamsters) [mg/dL],"MA% [1, 2]","Emax [1, 3] [%]","RED [1, 7]",Percent Lowering of Cholesterol from Control Value Mean (Syrian Golden hamsters; [6]) [%]
"CC(C)CCC[C@@H](C)[C@H]1CC[C@H]2[C@@H]3CCC4[C@H](Cc5ccc(OC(F)(F)F)cc5)[C@H](O)CC[C@]4(C)[C@H]3CC[C@]12C (some centres unmarked) [Example 30, 4a-(4-trifluoromethoxybenzyl)cholestan-3a-ol]",76,65% and 92%,8.9,17.3 and 8.9,3.2,38,209,,,,
"CC(C)CCC[C@@H](C)[C@H]1CC[C@H]2[C@@H]3CCC4[C@H](Cc5ccc(F)cc5)[C@H](O)CC[C@]4(C)[C@H]3CC[C@]12C (some centres unmarked) [Example 23, 4a-(4-fluorobenzyl)cholestan-3a-ol]",49,,,,,46.3,181,37%,,,
"C=CC[C@H]1C2CC[C@@H]3[C@H](CC[C@]4(C)C(OCCCC(C)C)CC[C@@H]34)[C@@]2(C)CC[C@H]1O (stereo partly drawn) [Example 66, (3α,4α)-17-[(4-methylpentyl)oxy]-4-(2-propenyl)androstan-3-ol]",,73% and 100% and 105% and 118%,,,,30.7,234,,,,
"C=CC[C@@H]1[C@H](NC(C)=O)CC[C@@]2(C)[C@H]1CC[C@@H]1[C@@H]2CC[C@]2(C)[C@@H]([C@H](C)CCCC(C)C)CC[C@@H]12 [Example 81, N-[(3α,4α,5α,20β)-4-(2-propenyl)cholestan-3-61]acetamide]",,,,44.9,,-7.8,364,,32,7.9,
"CC(C)CCC[C@@H](C)[C@H]1CC[C@H]2[C@@H]3CCC4[C@H](Cc5ccc(O)cc5)[C@H](O)CC[C@]4(C)[C@H]3CC[C@]12C (some centres unmarked) [Example 36, 4a-(4-hydroxybenzyl)cholestan-3a-ol]",20,,40,,17.6,22.6,261,,,,
"CC(C)CCC[C@@H](C)[C@H]1CC[C@H]2[C@@H]3CCC4[C@H](Cc5ccc(I)cc5)[C@H](O)CC[C@]4(C)[C@H]3CC[C@]12C (some centres unmarked) [Example 25, 4a-(4-iodobenzyl)cholestan-3a-ol]",,,,,,28.8,240,89% and 64% and 79%,,,
"C=CC[C@H]1C2CC[C@@H]3[C@H](CC[C@]4(C)C(OCc5ccccc5)CC[C@@H]34)[C@@]2(C)CC[C@H]1O (stereo partly drawn) [Example 68, (3α,4α)-17-(phenylmethoxy)-4-(2-propenyl)androstan-3-ol]",,33% and 39%,,,,8.6,309,,42,,
CCC[C@@H]1[C@H](O)CC[C@@]2(C)[C@H]1CC[C@@H]1[C@@H]2CC[C@]2(C)[C@@H]([C@H](C)CCCC(C)C)CC[C@@H]12 [Example 87],,,,23.2,,31.2,222,,14,8.3,
"C=CC[C@@H]1C[C@@]2(C)[C@@H](CC[C@@H]3[C@@H]2CC[C@]2(C)[C@@H]([C@H](C)CCCC(C)C)CC[C@@H]32)C[C@@H]1O [Example 77, (2a, 3a, 5a)-2-(2-propenyl)cholestan-3-ol]",,,,40.8,,38,209,,60,4.6,
C=CC[C@@H]1[C@H](N)CC[C@@]2(C)[C@H]1CC[C@@H]1[C@@H]2CC[C@]2(C)[C@@H]([C@H](C)CCCC(C)C)CC[C@@H]12 [Example 86],,,,5.6,,-37.4,464,,89,2.0,
"C/C=C/C[C@@H]1[C@H](O)CC[C@@]2(C)[C@H]1CC[C@@H]1[C@@H]2CC[C@]2(C)[C@@H]([C@H](C)CCCC(C)C)CC[C@@H]12 [Example 4, [4a(E),5a]-4-(2-butenyl)cholestan-3a-ol]",,,,2.2,,37.8,210,,80,1.00,
"C=CC[C@@H]1[C@H](OC(=O)CCCCCCCCCCCCCCCCC)CC[C@@]2(C)[C@H]1CC[C@@H]1[C@@H]2CC[C@]2(C)[C@@H]([C@H](C)CCCC(C)C)CC[C@@H]12 [Example 99, (3a,4a,5a)-4-(2-propenyl)cholestan-3-ol octadecanoate (ester)]",,,,,,,328,,,,2.7
